From ChEMBL document CHEMBL1124620, “New 1,4-dihydropyridine derivatives combining calcium antagonism and alpha-adrenolytic properties” (J Med Chem, 1989)

Biological target: T1, Adrenergic receptor alpha-2 (Rattus norvegicus, UniProt P22086+P19328+P22909)
T1 sequence (P22086 whole entry): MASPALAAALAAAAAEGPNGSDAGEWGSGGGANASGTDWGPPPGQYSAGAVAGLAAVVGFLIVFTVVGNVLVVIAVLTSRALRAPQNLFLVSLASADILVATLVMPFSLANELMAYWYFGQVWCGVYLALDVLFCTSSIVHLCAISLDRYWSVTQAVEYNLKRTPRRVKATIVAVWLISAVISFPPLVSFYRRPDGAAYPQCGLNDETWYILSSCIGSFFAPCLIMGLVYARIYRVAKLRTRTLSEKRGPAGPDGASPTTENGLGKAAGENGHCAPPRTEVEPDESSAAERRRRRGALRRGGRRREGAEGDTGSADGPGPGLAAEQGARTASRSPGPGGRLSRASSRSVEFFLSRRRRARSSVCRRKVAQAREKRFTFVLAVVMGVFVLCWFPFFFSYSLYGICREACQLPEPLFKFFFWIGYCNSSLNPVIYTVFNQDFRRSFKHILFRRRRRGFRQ
T1 sequence (P19328 whole entry): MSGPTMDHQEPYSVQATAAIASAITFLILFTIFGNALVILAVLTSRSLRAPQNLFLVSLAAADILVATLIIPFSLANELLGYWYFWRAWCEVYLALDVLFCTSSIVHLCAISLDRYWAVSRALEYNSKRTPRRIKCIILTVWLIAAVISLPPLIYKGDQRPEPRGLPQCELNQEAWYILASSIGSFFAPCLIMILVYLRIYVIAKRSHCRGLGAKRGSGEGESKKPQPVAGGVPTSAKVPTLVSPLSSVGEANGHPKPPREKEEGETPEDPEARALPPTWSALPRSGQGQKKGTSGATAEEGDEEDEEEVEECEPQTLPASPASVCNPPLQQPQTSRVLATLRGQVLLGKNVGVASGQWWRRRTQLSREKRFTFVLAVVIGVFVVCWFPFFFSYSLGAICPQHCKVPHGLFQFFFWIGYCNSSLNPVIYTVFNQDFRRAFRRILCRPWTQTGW
T1 sequence (P22909 whole entry): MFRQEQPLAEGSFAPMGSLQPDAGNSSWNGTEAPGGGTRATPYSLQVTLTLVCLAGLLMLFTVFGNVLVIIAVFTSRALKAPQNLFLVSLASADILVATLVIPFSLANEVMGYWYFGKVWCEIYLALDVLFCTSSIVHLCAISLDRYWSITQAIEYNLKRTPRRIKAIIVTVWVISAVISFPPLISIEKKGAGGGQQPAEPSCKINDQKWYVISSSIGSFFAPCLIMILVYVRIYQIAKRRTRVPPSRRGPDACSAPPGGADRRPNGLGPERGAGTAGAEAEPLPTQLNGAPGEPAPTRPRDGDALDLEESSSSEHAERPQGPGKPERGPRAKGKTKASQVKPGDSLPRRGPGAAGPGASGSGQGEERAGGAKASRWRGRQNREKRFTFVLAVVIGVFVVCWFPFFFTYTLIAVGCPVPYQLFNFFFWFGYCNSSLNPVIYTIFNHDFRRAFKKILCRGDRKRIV
Experiment: Alpha-2-adrenolytic activity was assessed from the ability to inhibit [3H]yohimbine binding to rat cerebral cortex preparation
Type: tissue-based

IC50: 2000 nM
SMILES: CC1=NC(C)=C(C(=O)OC(C)CN(C)CC2COc3ccccc3O2)C(c2cccc([N+](=O)[O-])c2)/C1=C(\O)OC(C)C.Cl (stereo unspecified)
